Consider three molecules from US20260184807A1, “Methods for Treating Rheumatoid Arthritis Using a Syndecan-1 Inhibitor or Syntenin-1 Inhibitor” (The United States Government as represented by the …, priority 2022, published 2026).

The test system of one test is MΦs. Particulars: classical and Syntenin-1-differentiated MΦs; cited from earlier work.
Test [1] deals with RA FLS. Particulars: cited from earlier work.
For test [2], the system named is RA FLS. Particulars: IL-6/IFNγ signaling; cited from earlier work.
The subject of the next test is RA MΦs. In words: Syntenin-1 stimulation and inhibition in RA MΦs (qRT-PCR, ELISA). Particulars: Syntenin-1 1000 ng/mL, 6 h or 24 h vs PBS, FIGS. 2B-2E. Type of test: cell-based, human. As to the method:
FIGS. 2A-K show ligation of Syntenin-1 to SDC-1 expands RA MΦ inflammatory profile independent of IL 5R or PDZ1 function. […] Transcription of IRFs (FIG. 2B) and the inflammatory monokines (FIG. 2C) was assessed by qRT-PCR (n=3-10), and protein levels of IL-6 (FIG. 2D) or TNFα (FIG. 2E) were determined in the conditioned media by ELISA (n=10). […] Data are presented as mean±SEM: significant differences were determined by the Mann-Whitney test, two-way-ANOVA, or one-way ANOVA. *p<0.05, **p<0.01, ***p<0.001, ****p<0.0001. ANOVA, analysis of variance.
(B, C) RA MΦs were treated with PBS (ctrl) or Syntenin-1 (1000 ng/mL) for 6 hours and transcription levels of HIF1α (n=10) (FIG. 3B). GLUT1, RAPTOR, HK2, PFK2, PDK1, PKM2 (FIG. 3C) were quantified by qRT-PCR (n=6). […] FIGS. 3H, 3I) after 24 hours impact of treatment was determined on CD14+CD86+ GLUT1+ frequency by flow cytometry (n=4-5). […] Data are presented as mean±SEM; significant differences were determined by Mann-Whitney test, Student's t-test, two-way-ANOVA, or one-way ANOVA. *p<0.05, **p<0.01, ***p<0.001, ****p<0.0001. ANOVA, analysis of variance.
Quantitative Real-Time PCR. […] Transcription to cDNA and subsequent quantitative real-time PCR analysis was performed using the High-Capacity cDNA Reverse Transcription Kit (Applied Biosystems) and TaqMan Gene Expression Master Mix (Applied Biosystems). […]
Background: Real-time PCR tracks product formation cycle by cycle.

Where only a bound is given, the exact number is not on record here.

Consider `O=CC[C@@H](O)[C@H](O)[C@H](O)CO` [2-DG, 2-deoxy-D-glucose], for which, in the test on MΦs, the “metabolic activity expanded via GLUT1, LDHA, and lactate” value is listed as “impaired”. Moreover, the “GLUT1 and HK2 transcriptional upregulation” value with RA FLS [1] (LPS/IFNγ reprogrammed RA FLS) is “suppressed”. In addition, the “upregulation of IRF1/5/7 along with IL-6, IL-8, and CCL2” value in the test on RA FLS [1] (RA FLS differentiated by LPS/IFNγ) is reported as “reversed”. Moreover, in the test with RA FLS [1] (RA FLS reconfigured by LPS/IFNγ), the citrate accumulation entry is “resolved”.

As to `C[C@@H]1CCN(C(=O)CC#N)C[C@@H]1N(C)c1ncnc2[nH]ccc12` [Tofacitinib], in the test on RA FLS [2], the “RA FLS migration” value is on record as “impaired”.

B1: Syntenin-1: Syntenin-1 protein (1000 ng/ml, NKMAX Co.) used as stimulus (protein, UniProt O00560 2-298, looked up)
Syntenin-1: SLYPSLEDLKVDKVIQAQTAFSANPANPAILSEASAPIPHDGNLYPRLYPELSQYMGLSLNEEEIRANVAVVSGAPLQGQLVARPSSINYMVAPVTGNDVGIRRAEIKQGIREVILCKDQDGKIGLRLKSIDNGIFVQLVQANSPASLVGLRFGDQVLQINGENCAGWSSDKAHKVLKQAFGEKITMTIRDRPFERTITMHKDSTGHVGFIFKNGKITSIVKDSSAARNGLLTEHNICEINGQNVIGLKDSQIADILSTSGTVVTITIMPAFIFEHIIKRMAPSIMKSLMDHTIPEV
With B1, the “expansion of monokines IL-1, TNF-α, IL-6, IL-8 and CCL2” value in the test with RA MΦs is over 7 fold.
